Results on 3 compounds are retold here after US8183415B2, “Methods of synthesizing cinacalcet and salts thereof” (Amgen, Inc., priority 2007, dated 2012).

Each structure is given as a SMILES string. Structures can show the parent of a compound that is named as a salt.

The target in data set [1] is T1, calcium-sensing receptor (Homo sapiens, UniProt P41180).
T1 construct: a calcium-sensing receptor on the cell surface of the parathyroid gland; from tissue; host or cells: parathyroid gland of patients (in vivo, clinical use)
T1 sequence (P41180 20-1078): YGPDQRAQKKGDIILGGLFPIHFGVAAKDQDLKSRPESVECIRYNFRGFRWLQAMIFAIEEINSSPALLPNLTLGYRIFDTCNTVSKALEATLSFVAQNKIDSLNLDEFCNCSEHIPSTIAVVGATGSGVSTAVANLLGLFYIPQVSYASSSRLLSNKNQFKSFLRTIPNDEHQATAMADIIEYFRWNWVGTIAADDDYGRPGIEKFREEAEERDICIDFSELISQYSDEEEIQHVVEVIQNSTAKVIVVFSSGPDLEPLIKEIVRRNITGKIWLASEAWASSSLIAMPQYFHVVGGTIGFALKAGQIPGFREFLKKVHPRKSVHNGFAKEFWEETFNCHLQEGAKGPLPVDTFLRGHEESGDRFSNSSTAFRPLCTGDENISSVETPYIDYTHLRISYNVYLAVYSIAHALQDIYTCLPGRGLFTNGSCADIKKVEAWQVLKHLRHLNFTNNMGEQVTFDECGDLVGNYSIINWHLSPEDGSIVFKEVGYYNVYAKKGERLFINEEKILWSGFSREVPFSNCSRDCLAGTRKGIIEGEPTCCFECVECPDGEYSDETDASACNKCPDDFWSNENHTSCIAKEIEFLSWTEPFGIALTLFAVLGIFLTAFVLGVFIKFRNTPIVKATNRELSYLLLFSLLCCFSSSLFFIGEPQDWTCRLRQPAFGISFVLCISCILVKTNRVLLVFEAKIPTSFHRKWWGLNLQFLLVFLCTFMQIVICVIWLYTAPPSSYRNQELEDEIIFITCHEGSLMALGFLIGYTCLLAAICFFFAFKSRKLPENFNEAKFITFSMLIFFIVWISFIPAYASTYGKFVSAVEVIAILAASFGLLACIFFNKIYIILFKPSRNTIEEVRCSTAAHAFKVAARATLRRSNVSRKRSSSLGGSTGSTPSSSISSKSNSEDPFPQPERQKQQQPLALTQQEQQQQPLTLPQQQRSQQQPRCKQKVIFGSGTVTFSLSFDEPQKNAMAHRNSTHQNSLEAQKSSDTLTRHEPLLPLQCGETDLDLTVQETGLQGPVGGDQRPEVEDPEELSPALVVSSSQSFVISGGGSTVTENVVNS
Particulars: patients with chronic kidney disease on dialysis with secondary hyperparathyroidism; cited from earlier work.

Data set [2] concerns the target T1, calcium-sensing receptor. Particulars: patients with parathyroid carcinoma; cited from earlier work.

Take `C[C@@H](NCCCc1cccc(C(F)(F)F)c1)c1cccc2ccccc12.Cl` [Form III]: for the setting “variety of solvent systems and crystallization methods, XRPD”, the “thermodynamic stability of crystalline form” value was “metastable form”. As for `C[C@@H](NCCCc1cccc(C(F)(F)F)c1)c1cccc2ccccc12` [Sensipar, N-[1-(R)-(−)-(1-naphthyl)ethyl]-3-[3-(trifluoromethyl)phenyl]-1-aminopropane hydrochloride], the therapeutic efficacy result in data set [1] is on record as “therapeutically effective”. The “effect on calcium levels” value in data set [2] is “reduce high levels of calcium”. `C[C@@H](NCCCc1cccc(C(F)(F)F)c1)c1cccc2ccccc12.Cl` [Form II]: under “at room temperature”, the “stability of crystalline form” value is “unstable”.
